Data: PubChem BioAssay AID330 (DTP/NCI, 2004)
Where “and” joins values, the source holds several entries; their conditions need not be identical. Identical values can stand only once. Inconclusive results and toxic doses are left out.

Tested on: P388 leukemia ip, CD2F1 mice, survival T/C
Assay: NCI In Vivo Anticancer Drug Screen. Data for tumor model P388 Leukemia (intraperitoneal) in CD2F1 (CDF1) mice
Conditions: endpoint: median survival time, higher = longer survival
Summary of the method: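 Mice carrying the transplanted tumor received test compound or vehicle. Survival was recorded in each group, and the value is the treated-group measurement divided by that of the vehicle-treated control group.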

[1] = dose: 7.5 mg/kg/injection, schedule: Q01DX005 (ip), vehicle: saline with Tween-80
[2] = dose: 15.0 mg/kg/injection, schedule: Q01DX005 (ip), vehicle: saline with Tween-80
[3] = dose: 30.0 mg/kg/injection, schedule: Q01DX005 (ip), vehicle: saline with Tween-80
[4] = dose: 50.0 mg/kg/injection, schedule: Q01DX005 (ip), vehicle: Klucel (hydroxypropylcellulose) (HPC)
[5] = dose: 100.0 mg/kg/injection, schedule: Q01DX005 (ip), vehicle: Klucel (hydroxypropylcellulose) (HPC)
[6] = dose: 200.0 mg/kg/injection, schedule: Q01DX005 (ip), vehicle: Klucel (hydroxypropylcellulose) (HPC)
[7] = dose: 60.0 mg/kg/injection, schedule: Q01DX005 (ip), vehicle: saline with Tween-80
[8] = dose: 120.0 mg/kg/injection, schedule: Q01DX005 (ip), vehicle: saline with Tween-80
[9] = dose: 240.0 mg/kg/injection, schedule: Q01DX005 (ip), vehicle: saline with Tween-80
[10] = dose: 50.0 mg/kg/injection, schedule: Q01DX009 (ip), vehicle: Klucel (hydroxypropylcellulose) (HPC)
[11] = dose: 100.0 mg/kg/injection, schedule: Q01DX009 (ip), vehicle: Klucel (hydroxypropylcellulose) (HPC)
[12] = dose: 60.0 mg/kg/injection, schedule: Q01DX005 (ip), vehicle: Klucel (hydroxypropylcellulose) (HPC)
[13] = dose: 120.0 mg/kg/injection, schedule: Q01DX005 (ip), vehicle: Klucel (hydroxypropylcellulose) (HPC)
[14] = dose: 12.5 mg/kg/injection, schedule: Q01DX009 (ip), vehicle: saline with Tween-80
[15] = dose: 25.0 mg/kg/injection, schedule: Q01DX009 (ip), vehicle: saline with Tween-80
[16] = dose: 50.0 mg/kg/injection, schedule: Q01DX005 (ip), vehicle: saline with Tween-80
[17] = dose: 100.0 mg/kg/injection, schedule: Q01DX005 (ip), vehicle: saline with Tween-80
[18] = dose: 50.0 mg/kg/injection, schedule: Q01DX009 (ip), vehicle: saline with Tween-80

BrCc1ccc2ccc3ccc(CBr)nc3c2n1
T/C [1]: 103 % of control
T/C [2]: 115 % of control
T/C [3]: 106 % of control

CN=C(NC#N)NCCSCc1nc[nH]c1C
T/C (dose: 25.0 mg/kg/injection, schedule: Q01DX005 (ip), vehicle: Klucel (hydroxypropylcellulose) (HPC)): 102 % of control
T/C [4]: 93 % of control
T/C [5]: 93 % of control
T/C [6]: 102 % of control
T/C (dose: 400.0 mg/kg/injection, schedule: Q01DX005 (ip), vehicle: Klucel (hydroxypropylcellulose) (HPC)): 93 % of control

NC(=O)CNC(c1ccccc1)c1ccccc1
T/C (dose: 37.5 mg/kg/injection, schedule: Q01DX009 (ip), vehicle: saline with Tween-80): 107 % of control
T/C (dose: 75.0 mg/kg/injection, schedule: Q01DX009 (ip), vehicle: saline with Tween-80): 106 % of control
T/C (dose: 150.0 mg/kg/injection, schedule: Q01DX009 (ip), vehicle: saline with Tween-80): 100 % of control

O=Cc1cc(-c2ccccc2)n(-c2ccccc2)c1-c1ccccc1
T/C [7]: 96 % of control
T/C [8]: 98 % of control
T/C [9]: 97 % of control

O=[N+]([O-])c1ccc([Se]CCO)c([N+](=O)[O-])c1
T/C [10]: 101 % of control
T/C [11]: 99 % of control

Cc1nc(N)[nH]c(=O)c1CCCCC#N
T/C [12]: 104 % of control
T/C [13]: 104 % of control

CCCCCCCCCCCCCCCC[N+](C)(C)CCOC(C)=O
T/C [14]: 109 % of control
T/C (dose: 12.5 mg/kg/injection, schedule: Q01DX009 (ip), vehicle: saline): 111 % of control
T/C [15]: 109 % of control
T/C (dose: 25.0 mg/kg/injection, schedule: Q01DX009 (ip), vehicle: saline): 100 % of control

CC(/C=C/c1ccco1)=N\NC(=S)Nc1ccc(Br)cc1
T/C (dose: 100.0 mg/kg/injection, schedule: Q04DX002 (ip), vehicle: Klucel (hydroxypropylcellulose) (HPC)): 97 % of control
T/C (dose: 200.0 mg/kg/injection, schedule: Q04DX002 (ip), vehicle: Klucel (hydroxypropylcellulose) (HPC)): 97 % of control
T/C (dose: 400.0 mg/kg/injection, schedule: Q04DX002 (ip), vehicle: Klucel (hydroxypropylcellulose) (HPC)): 92 % of control

Cn1c(-c2ccc(/C=N/N=C(\N)N/N=C/c3ccc(-c4c[n+]5ccsc5n4C)cc3)cc2)c[n+]2ccsc12
T/C (dose: 0.13 mg/kg/injection, schedule: Q01DX005 (ip), vehicle: saline): 108 % of control
T/C (dose: 0.25 mg/kg/injection, schedule: Q01DX005 (ip), vehicle: saline): 121 % of control

COc1ccc2c(Cl)ccnc2c1OC
T/C [16]: 99 % of control
T/C [17]: 107 % of control

Clc1cccc(Cl)c1NC1=NCCS1
T/C [10]: 92 % of control
T/C [11]: 101 % of control

CCOc1ccc(/C=N/NC(=O)c2ccc(O)c(OC)c2)cc1OC
T/C (dose: 60.0 mg/kg/injection, schedule: Q01DX005 (ip), vehicle: saline): 100 % of control
T/C (dose: 120.0 mg/kg/injection, schedule: Q01DX005 (ip), vehicle: saline): 102 % of control
T/C (dose: 240.0 mg/kg/injection, schedule: Q01DX005 (ip), vehicle: saline): 95 % of control

Cc1cc(NC(=O)C(=O)O)cc2c(=O)cc(C(=O)O)[nH]c12
T/C (dose: 25.0 mg/kg/injection, schedule: Q01DX009 (ip), vehicle: Klucel (hydroxypropylcellulose) (HPC)): 102 % of control
T/C [10]: 117 % of control and 124 % of control

[N-]=[N+]=N/C=C1\CCOC1=O
T/C [1]: 101 % of control
T/C [2]: 100 % of control
T/C [3]: 99 % of control and 100 % of control
T/C [9]: 99 % of control

COc1cc(N=Nc2ccccc2)cc(/C=N\NC(=S)Nc2ccc(C)cc2)c1O
T/C [16]: 94 % of control
T/C [17]: 96 % of control

COC1=CC(=O)C(C/C=C/c2ccccc2)=CC1=O
T/C (dose: 2.5 mg/kg/injection, schedule: Q01DX009 (ip), vehicle: saline with Tween-80): 103 % of control
T/C (dose: 5.0 mg/kg/injection, schedule: Q01DX009 (ip), vehicle: saline with Tween-80): 105 % of control
T/C (dose: 10.0 mg/kg/injection, schedule: Q01DX009 (ip), vehicle: saline with Tween-80): 105 % of control

O=C1OCC2CC3C4C=CC(C4)C3C12 (stereo not given)
T/C [4]: 103 % of control
T/C [5]: 93 % of control

COc1ccc(NC(=O)N2CC3CCN2CC3)cc1
T/C [7]: 99 % of control
T/C [8]: 93 % of control
T/C [9]: 90 % of control

c1ccc2c(c1)C1c3cccc[n+]3C2C2C1CC1C3c4ccccc4C(C12)[n+]1ccccc13 (stereo not given)
T/C (dose: 1.56 mg/kg/injection, schedule: Q01DX005 (ip), vehicle: saline with Tween-80): 102 % of control
T/C (dose: 3.13 mg/kg/injection, schedule: Q01DX005 (ip), vehicle: saline with Tween-80): 102 % of control
T/C (dose: 6.25 mg/kg/injection, schedule: Q01DX005 (ip), vehicle: saline with Tween-80): 104 % of control and 94 % of control

COc1ccc(C2SCC(=O)N2c2nncs2)cc1F (stereo not given)
T/C [12]: 92 % of control
T/C [13]: 96 % of control
T/C (dose: 240.0 mg/kg/injection, schedule: Q01DX005 (ip), vehicle: Klucel (hydroxypropylcellulose) (HPC)): 92 % of control

CC(=O)OC1C(c2ccc(Cl)cc2)CC2CCC1N2C (stereo not given)
T/C [16]: 103 % of control
T/C [17]: 102 % of control

O=P(c1ccccc1)(c1ccccc1)c1ccccc1OCCOCCOc1ccccc1P(=O)(c1ccccc1)c1ccccc1
T/C [4]: 100 % of control
T/C [5]: 91 % of control
T/C [6]: 99 % of control

CCCCOc1cc(N)nc2ccccc12
T/C (dose: 12.5 mg/kg/injection, schedule: Q04DX002 (ip), vehicle: saline with Tween-80): 95 % of control
T/C (dose: 25.0 mg/kg/injection, schedule: Q04DX002 (ip), vehicle: saline with Tween-80): 100 % of control
T/C (dose: 50.0 mg/kg/injection, schedule: Q04DX002 (ip), vehicle: saline with Tween-80): 99 % of control

ClC1CN2CCC1CC2 (stereo not given)
T/C [14]: 91 % of control
T/C [15]: 95 % of control
T/C [18]: 100 % of control

Cn1cnc([N+](=O)[O-])c1N1CCN(c2ccccc2)CC1
T/C (dose: 100.0 mg/kg/injection, schedule: Q01DX001 (ip), vehicle: saline with Tween-80): 97 % of control
T/C (dose: 200.0 mg/kg/injection, schedule: Q01DX001 (ip), vehicle: saline with Tween-80): 93 % of control
T/C (dose: 400.0 mg/kg/injection, schedule: Q01DX001 (ip), vehicle: saline with Tween-80): 94 % of control

CN1C(=O)C(=C/C=C/N(C)c2ccccc2)C(=O)N(C)C1=O
T/C [18]: 96 % of control
T/C (dose: 100.0 mg/kg/injection, schedule: Q01DX009 (ip), vehicle: saline with Tween-80): 95 % of control
T/C (dose: 200.0 mg/kg/injection, schedule: Q01DX009 (ip), vehicle: saline with Tween-80): 88 % of control

COc1ccc(C)cc1NC(=O)ON=C1CCCCC1
T/C [7]: 95 % of control
T/C [8]: 94 % of control
T/C [9]: 100 % of control

CC(=O)c1cn[nH]c1NC(=O)c1ccccc1
T/C (dose: 8.75 mg/kg/injection, schedule: Q01DX005 (ip), vehicle: Klucel (hydroxypropylcellulose) (HPC)): 103 % of control
T/C (dose: 17.5 mg/kg/injection, schedule: Q01DX005 (ip), vehicle: Klucel (hydroxypropylcellulose) (HPC)): 103 % of control
T/C (dose: 35.0 mg/kg/injection, schedule: Q01DX005 (ip), vehicle: Klucel (hydroxypropylcellulose) (HPC)): 95 % of control

CNc1ccc([N+](=O)[O-])cc1/C([O-])=C\[S+](C)(C)=O
T/C (dose: 100.0 mg/kg/injection, schedule: Q04DX003 (ip), vehicle: saline): 97 % of control
T/C (dose: 200.0 mg/kg/injection, schedule: Q04DX003 (ip), vehicle: saline): 106 % of control
T/C (dose: 400.0 mg/kg/injection, schedule: Q04DX003 (ip), vehicle: saline): 97 % of control

O=[N+]([O-])c1ccccc1/C=C\c1ccccn1
T/C [4]: 104 % of control
T/C [5]: 101 % of control
T/C [6]: 101 % of control
